For 33 compounds, Ki results are on record in US9688698B2, “Heteroaromatic compounds and their use as dopamine D1 ligands” (PFIZER INC., priority 2014, dated 2017).

Structures can show the parent of a compound that is named as a salt.

The target in this test is T1, Human D1 Receptor (Homo sapiens, UniProt P21728).
T1 construct: expressed in transfected cells; host or cells: LTK cell line over-expressing the D1 receptor
T1 sequence (P21728 whole entry): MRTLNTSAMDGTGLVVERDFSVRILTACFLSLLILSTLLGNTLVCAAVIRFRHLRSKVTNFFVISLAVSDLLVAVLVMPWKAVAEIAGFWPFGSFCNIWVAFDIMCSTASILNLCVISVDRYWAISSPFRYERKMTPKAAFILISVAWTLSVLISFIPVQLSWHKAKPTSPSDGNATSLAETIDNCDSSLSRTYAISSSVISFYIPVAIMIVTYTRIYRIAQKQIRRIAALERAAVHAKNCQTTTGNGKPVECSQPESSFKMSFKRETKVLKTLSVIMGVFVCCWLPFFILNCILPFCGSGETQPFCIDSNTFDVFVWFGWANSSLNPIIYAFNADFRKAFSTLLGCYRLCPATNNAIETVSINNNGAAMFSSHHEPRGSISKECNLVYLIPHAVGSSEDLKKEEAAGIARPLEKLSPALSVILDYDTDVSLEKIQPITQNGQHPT
The test can be described thus: Human D1 Receptor Binding Assay ([3H]-SCH23390 competition binding). The following applies: over-expressing LTK human cell lines; 0.5 nM [3H]-SCH23390; 30 min at 37° C.; footnote a = geometric mean of ≧5 determinations, footnote b = single determination; read-out: Human D1 Receptor Binding, Ki (nM); Geometric mean of 2-4 determinations (unless otherwise indicated). As to the method:
The affinity of the compounds described herein was determined by competition binding assays similar to those described in Ryman-Rasmussen et al., “Differential activation of adenylate cyclase and receptor internalization by novel dopamine D1 receptor agonists”, Molecular Pharmacology 68(4):1039-1048 (2005).
D1 binding assays were performed using over-expressing LTK human cell lines. […] These ligand and tissue concentrations were used in time course studies to determine linearity and equilibrium conditions for binding. Binding was at equilibrium with the specified amount of tissue in 30 minutes at 37° C. […] The pellet was resuspended in assay buffer [50 mM Tris (pH 7.4@RT) containing 4 mM MgSO4 and 0.5 mM EDTA]. […] Non-specific binding was determined by radioligand binding in the presence of a saturating concentration of (+)-Butaclamol (10 μM), a D1 antagonist. After a 30 minute incubation period at 37° C., assay samples were rapidly filtered through Unifilter-96 GF/B PEI-coated filter plates and rinsed with 50 mM Tris buffer (pH 7.4 at 4° C.). […] The IC50 value (concentration at which 50% inhibition of specific binding occurs) was calculated by linear regression of the concentration-response data in Microsoft Excel. Ki values were calculated according to the Cheng-Prusoff equation: […]
As to `Cc1ncnc(C)c1-c1ccc(Oc2ncnc3ccsc23)cc1C#N` [Example 35, 2-(4,6-dimethylpyrimidin-5-yl)-5-(thieno[3,2-d]pyrimidin-4-yloxy)benzonitrile], the Ki (in general, a measure of affinity in units of concentration, obtained from inhibition or displacement) is 480 nM. The same measure for `Cc1cnnc(C)c1-c1ccc(Oc2nccc3ncsc23)cc1F` [Example 63, 4-[4-(3,5-dimethylpyridazin-4-yl)-3-fluorophenoxy][1,3]thiazolo[5,4-c]pyridine]: 109 nM; for `Cc1cc(Oc2nccc3ncsc23)ccc1-c1c(C)cnnc1C` [Example 60, 4-[4-(3,5-dimethylpyridazin-4-yl)-3-methylphenoxy][1,3]thiazolo[5,4-c]pyridine]: 65.3 nM. Consider `Cc1cc(Oc2nccc3ncsc23)ccc1-c1c(C)ncc(=O)n1C` (single isomer, unassigned) [Example 29, (−)-1,5-dimethyl-6-[2-methyl-4-([1,3]thiazolo[5,4-c]pyridin-4-yloxy)phenyl]pyrazin-2(1H)-one], for which the Ki amounted to 40.6 nM. As for `Cc1c(-c2ccc(Oc3ncnc4ccsc34)cc2)n(C)c(=O)[nH]c1=O` [Example 68, 1,5-dimethyl-6-[4-(thieno[3,2-d]pyrimidin-4-yloxy)phenyl]pyrimidine-2,4(1H,3H)-dione], the Ki is 15.6 nM. With `Cc1cnnc(C)c1-c1ccc(Oc2nccc3ccsc23)cc1F` [Example 47, 7-[4-(3,5-dimethylpyridazin-4-yl)-3-fluorophenoxy]thieno[2,3-c]pyridine], the Ki was found to be 6.1 nM. To `Cc1ncnc(C)c1-c1ccc(Oc2ncnc3ccsc23)cc1` [Example 22, 4-[4-(4,6-dimethylpyrimidin-5-yl)phenoxy]thieno[3,2-d]pyrimidine] belongs 146 nM; to `COc1cc(Oc2nccc3ncsc23)ccc1-c1c(C)ncnc1C` [Example 59, 4-[4-(4,6-dimethylpyrimidin-5-yl)-3-methoxyphenoxy][1,3]thiazolo[5,4-c]pyridine], 185 nM. As for `Cc1cc(Oc2nccc3ncsc23)c(F)cc1-c1c(C)ncnc1C` [Example 34, 4-[4-(4,6-dimethylpyrimidin-5-yl)-2-fluoro-5-methylphenoxy][1,3]thiazolo[5,4-c]pyridine], the Ki came out at 151 nM. To `Cc1cnnc(C)c1-c1ccc(Oc2nccc3ccsc23)cc1C#N` [Example 43, 2-(3,5-dimethylpyridazin-4-yl)-5-(thieno[2,3-c]pyridin-7-yloxy)benzonitrile, trifluoroacetate salt] belongs 46.3 nM; to `Cc1ncnc(C)c1-c1ccc(Oc2nccc3ccsc23)c(F)c1C` [Example 40, 7-[4-(4,6-dimethylpyrimidin-5-yl)-2-fluoro-3-methylphenoxy]thieno[2,3-c]pyridine], 40.7 nM; to `Cc1cc(Oc2ncnc3ccsc23)ccc1-c1c(C)c(=O)[nH]c(=O)n1C` (single isomer, unassigned) [Example 1, (+)-1,5-dimethyl-6-[2-methyl-4-(thieno[3,2-d]pyrimidin-4-yloxy)phenyl]pyrimidine-2,4(1H,3H)-dione], 4.1 nM. To `Cc1cc(Oc2nccc3ncsc23)ccc1-c1c(C)ncc(=O)n1C` [Example 16, 1,5-dimethyl-6-[2-methyl-4-([1,3]thiazolo[5,4-c]pyridin-4-yloxy)phenyl]pyrazin-2(1H)-one] belongs 82.8 nM. The same measure for `Cc1cc(Oc2nccc3cc[nH]c23)ccc1-c1c(C)ncnc1C` [Example 12, 7-[4-(4,6-dimethylpyrimidin-5-yl)-3-methylphenoxy]-1H-pyrrolo[2,3-c]pyridine]: 403 nM. Turning to `Cc1cc(Oc2nccc3ccoc23)ccc1-c1c(C)ncnc1C` [Example 11, 7-[4-(4,6-dimethylpyrimidin-5-yl)-3-methylphenoxy]furo[2,3-c]pyridine], the Ki stood at 57.8 nM. The same measure for `Cc1ncnc(C)c1-c1ccc(Oc2nccc3ncsc23)cc1Cl` [Example 31, 4-[3-chloro-4-(4,6-dimethylpyrimidin-5-yl)phenoxy][1,3]thiazolo[5,4-c]pyridine]: 71.9 nM; for `Cc1cc(Oc2nccc3cc[nH]c23)ccc1-c1nccnc1C` [Example 53, 7-[3-methyl-4-(3-methylpyrazin-2-yl)phenoxy]-1H-pyrrolo[2,3-c]pyridine]: 1890 nM; for `Cc1cc(Oc2nccc3ncsc23)ccc1-c1c(C)n[nH]c(=O)c1C` [Example 26, 4,6-dimethyl-5-[2-methyl-4-([1,3]thiazolo[5,4-c]pyridin-4-yloxy)phenyl]pyridazin-3(2H)-one]: 12.2 nM. To `Cc1cc(Oc2nccc3ncsc23)ccc1-c1c(C)cnnc1C` (single isomer, unassigned) [Example 65, (−)-4-[4-(3,5-dimethylpyridazin-4-yl)-3-methylphenoxy][1,3]thiazolo[5,4-c]pyridine] belongs 223 nM; to `Cc1ncnc(C)c1-c1ccc(Oc2ncnc3ccsc23)cc1F` [Example 24, 4-[4-(4,6-dimethylpyrimidin-5-yl)-3-fluorophenoxy]thieno[3,2-d]pyrimidine, trifluoroacetate salt], 531 nM; to `Cc1cc(Oc2nccc3ccsc23)ccc1-c1c(C)ncc(=O)n1C` [Example 5, 1,5-dimethyl-6-[2-methyl-4-(thieno[2,3-c]pyridin-7-yloxy)phenyl]pyrazin-2(1H)-one], 1.6 nM. In the case of `Cc1cc(Oc2ncnc3ccsc23)ccc1-c1cn[nH]c(=O)c1C` [Example 4, 4-methyl-5-[2-methyl-4-(thieno[3,2-d]pyrimidin-4-yloxy)phenyl]pyridazin-3(2H)-one], the Ki stood at 68.4 nM.

Turning to `Cc1ncnc(C)c1-c1ccc(Oc2nccc3ccsc23)cc1Cl` [Example 36, 7-[3-chloro-4-(4,6-dimethylpyrimidin-5-yl)phenoxy]thieno[2,3-c]pyridine], the Ki came to 6.7 nM. The same measure for `Cc1cc(Oc2ncnc3ccsc23)ccc1-c1c(C)c(=O)[nH]c(=O)n1C` (single isomer, unassigned) [Example 2, (−)-1,5-dimethyl-6-[2-methyl-4-(thieno[3,2-d]pyrimidin-4-yloxy)phenyl]pyrimidine-2,4(1H,3H)-dione]: 1.8 nM. Consider `Cc1ncnc(C)c1-c1ccc(Oc2nccc3ncsc23)cc1C#N` [Example 7, 2-(4,6-dimethylpyrimidin-5-yl)-5-([1,3]thiazolo[5,4-c]pyridin-4-yloxy)benzonitrile], for which the Ki worked out at 184 nM. With `Cc1cc(Oc2ncnc3ccsc23)c(F)cc1-c1c(C)ncnc1C` [Example 18, 4-[4-(4,6-dimethylpyrimidin-5-yl)-2-fluoro-5-methylphenoxy]thieno[3,2-d]pyrimidine], the Ki stood at 34.5 nM.

With `COc1cc(Oc2nccc3ccsc23)ccc1-c1c(C)cnnc1C` [Example 42, 7-[4-(3,5-dimethylpyridazin-4-yl)-3-methoxyphenoxy]thieno[2,3-c]pyridine], the Ki came to 17.7 nM. For `COc1cc(Oc2nccc3ccsc23)ccc1-c1cccnc1C` [Example 44, 7-[3-methoxy-4-(2-methylpyridin-3-yl)phenoxy]thieno[2,3-c]pyridine, trifluoroacetate salt], the Ki is 16.4 nM. To `Cc1ncnc(C)c1-c1ccc(Oc2nccc3ccsc23)c(F)c1` [Example 39, 7-[4-(4,6-dimethylpyrimidin-5-yl)-2-fluorophenoxy]thieno[2,3-c]pyridine] belongs 28.2 nM; to `Cc1ncnc(C)c1-c1ccc(Oc2nccc3ccsc23)cc1F` [Example 50, 7-[4-(4,6-dimethylpyrimidin-5-yl)-3-fluorophenoxy]thieno[2,3-c]pyridine], 6.7 nM; to `Cc1cc(Oc2nccc3cn[nH]c23)ccc1-c1c(C)n[nH]c(=O)c1C` [Example 25, 4,6-dimethyl-5-[2-methyl-4-(1H-pyrazolo[3,4-c]pyridin-7-yloxy)phenyl]pyridazin-3(2H)-one], 120 nM. To `Cc1cc(Oc2nccc3ccsc23)ccc1-c1c(C)ncnc1C` [Example 6, 7-[4-(4,6-dimethylpyrimidin-5-yl)-3-methylphenoxy]thieno[2,3-c]pyridine] belongs 5.8 nM; to `Cc1nc2ccnc(Oc3ccc(-c4c(C)n[nH]c(=O)c4C)c(C)c3)c2s1` [Example 56, 4,6-dimethyl-5-{2-methyl-4-[(2-methyl[1,3]thiazolo[5,4-c]pyridin-4-yl)oxy]phenyl}pyridazin-3(2H)-one], 106 nM.
